# Experiments:
# PRMT5 [1] = molecular target: T1, PRMT5 (Homo sapiens, UniProt O14744); assay: PRMT5 IC50 assay in the presence of SAM as cofactor; format: biochemical
# T1 construct: purchased Viva (custom protein)
# Method in brief: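 Enzyme: human PRMT5. Conditions: plus SAM, plus MTA, or cofactor-free. Output: IC50 (μM); Ki via IC50/1.5 (SAM) or IC50/13.5 (MTA).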
# HAP1 MTAP-intact = assay: SDMA in-cell western assay, HAP1 MTAP-intact cell line; format: cell-based; conditions: Homo sapiens
# Method in brief: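 Symmetric dimethylarginine (SDMA) levels were measured by in-cell western in an isogenic HAP1 pair, one expressing endogenous MTAP and one MTAP-null, and IC50 values were derived for each line. Compounds whose IC50 ratio between the lines is 3-fold or more are classed as MTAP-selective.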
# HAP1 MTAP-deleted = assay: SDMA in-cell western assay, HAP1 MTAP-deleted cell line; format: cell-based; conditions: for IC50: Homo sapiens, HAP1 MTAP-deleted cell line; for MTAP Intact/Deleted Ratio: IC50 ratio HAP1 MTAP-intact / HAP1 MTAP-deleted
# Method in brief: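 Symmetric dimethylarginine (SDMA) levels were measured by in-cell western in MTAP-null HAP1 cells, one half of an MTAP-isogenic pair whose partner line expresses endogenous MTAP. Compound potency is reported as IC50.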
# PRMT5 [2] = molecular target: T1, PRMT5; assay: PRMT5 IC50 assay in the presence of MTA as cofactor; format: biochemical; conditions: for IC50: PRMT5, MTA as cofactor
# Method in brief: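 IC50 against PRMT5 determined with SAM as cofactor, with no cofactor, and with MTA as cofactor. Ki derived as IC50/1.5 for the SAM assay and IC50/13.5 for the MTA assay; SAM Ki to MTA Ki ratio also reported.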
# PRMT5 [3] = molecular target: T1, PRMT5; assay: PRMT5 IC50 assay with no cofactor; format: biochemical
# Method in brief: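 Each compound is tested on PRMT5 in the presence of SAM, of MTA, and without any cofactor. Ki values are then back-calculated using fixed factors of 1.5 (SAM) and 13.5 (MTA), and the two Ki values are compared as a ratio.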
# [4] = ratio between Ki in the presence of SAM and Ki in the presence of MTA
# [5] = ratio between the Ki in the presence of SAM and the Ki in the presence of MTA
# T1 sequence (O14744 whole entry): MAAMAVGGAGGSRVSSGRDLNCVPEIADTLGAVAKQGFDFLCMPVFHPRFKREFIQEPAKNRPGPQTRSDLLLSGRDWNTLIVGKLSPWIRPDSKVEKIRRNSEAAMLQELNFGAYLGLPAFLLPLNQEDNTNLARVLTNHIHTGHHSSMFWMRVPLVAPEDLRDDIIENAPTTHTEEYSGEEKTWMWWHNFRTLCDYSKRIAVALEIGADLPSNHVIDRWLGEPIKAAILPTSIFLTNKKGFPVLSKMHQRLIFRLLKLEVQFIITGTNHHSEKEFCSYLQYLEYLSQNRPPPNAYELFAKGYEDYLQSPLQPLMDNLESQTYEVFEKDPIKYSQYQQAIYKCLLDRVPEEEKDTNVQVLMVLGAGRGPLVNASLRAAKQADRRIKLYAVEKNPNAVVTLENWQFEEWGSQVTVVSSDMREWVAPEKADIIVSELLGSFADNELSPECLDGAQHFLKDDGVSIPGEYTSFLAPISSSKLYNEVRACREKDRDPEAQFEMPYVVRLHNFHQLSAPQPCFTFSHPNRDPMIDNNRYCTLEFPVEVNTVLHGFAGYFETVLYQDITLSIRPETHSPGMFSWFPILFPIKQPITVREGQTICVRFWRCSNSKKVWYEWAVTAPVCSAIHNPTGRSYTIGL
# T1 sequence (Q9BQA1 whole entry partner): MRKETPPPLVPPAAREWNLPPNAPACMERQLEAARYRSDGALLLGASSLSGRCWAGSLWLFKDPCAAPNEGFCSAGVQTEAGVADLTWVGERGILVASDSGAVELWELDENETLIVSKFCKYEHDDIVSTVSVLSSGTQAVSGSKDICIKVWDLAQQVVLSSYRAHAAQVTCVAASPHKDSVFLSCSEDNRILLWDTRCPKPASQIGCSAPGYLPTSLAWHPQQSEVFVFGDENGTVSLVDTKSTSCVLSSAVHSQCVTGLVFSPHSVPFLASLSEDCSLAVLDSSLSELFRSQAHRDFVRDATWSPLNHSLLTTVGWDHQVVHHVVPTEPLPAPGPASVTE
SMILES,IC50 (PRMT5 [1]) [nM],IC50 (HAP1 MTAP-intact) [nM],IC50 (HAP1 MTAP-deleted) [nM],IC50 (PRMT5 [2]) [nM],IC50 (PRMT5 [3]; read-out: No Co-factor IC50) [nM],IC50 (PRMT5 [3]) [nM],MTAP Intact/Deleted Ratio (HAP1 MTAP-deleted),SAM/MTA Ratio (PRMT5 [2]; [4]),SAM/MTA Ratio (PRMT5 [2]; [5])
"O=C(NC[C@H](O)CN1CCc2cc(OCc3cnco3)ccc2C1)c1cc(NC2CCC2)ncc1Cl [Compound 284, 5-chloro-2-(cyclobutylamino)-N-[(2S)-2-hydroxy-3-[6-(oxazol-5-ylmethoxy)-3N-dihydro-1H-isoquinolin-2-yl]propyl]pyridine-4-carboxamide]",500 to 5000,< 1000,< 1000,50 to 500,≥ 5000,–,C* (an IC50 ratio of less than 3 fold between the IC50 in the HAP1 MTAP-intact cell line and the HAP1 MTAP-deleted cell line),A (a Ki ratio greater than or equal to 10 fold between the Ki in the presence of SAM and the Ki in the presence of MTA),–
"CC(=O)N1CCC(Nc2cc(C(=O)NC[C@H](O)CN3CCc4cc(OCc5ocnc5C)ccc4C3)ncn2)CC1 [Compound 219, (S)-6-((1-acetylpiperidin-4-yl)amino)-N-(2-hydroxy-3-(6-((4-methyloxazol-5-yl)methoxy)-3,4-dihydroisoquinolin-2(1H)-yl)propyl)pyrimidine-4-carboxamide]",50 to 500,1000 to 10000,< 1000,50 to 500,≥ 5000,–,B* (an IC50 ratio greater than or equal to 3 fold but lower than 10 fold between the IC50 in the HAP1 MTAP-intact cell line and the HAP1 MTAP-deleted cell line),A (a Ki ratio greater than or equal to 10 fold between the Ki in the presence of SAM and the Ki in the presence of MTA),–
"CC(=O)N1CCC(Nc2cc(C(=O)NC[C@H](O)CN3CCc4c(ccc(OCc5conc5C)c4Cl)C3)ncn2)CC1 [Compound 251, (S)-6-((1-acetylpiperidin-4-yl)amino)-N-(3-(5-chloro-6-((3-methylisoxazol-4-yl)methoxy)-3N-dihydroisoquinolin-2(1H)-yl)-2-hydroxypropyl)pyrimidine-4-carboxamide]",500 to 5000,≥ 10000,≥ 10000,500 to 5000,≥ 5000,–,C* (an IC50 ratio of less than 3 fold between the IC50 in the HAP1 MTAP-intact cell line and the HAP1 MTAP-deleted cell line),–,–
"Cc1ncoc1COc1ccc2c(c1Br)CCN(C[C@@H](O)CNC(=O)c1cccc(NC3CCC3)c1)C2 [Compound 354, (S)—N-(3-(5-bromo-6-((4-methyloxazol-5-yl)methoxy)-3,4-dihydroisoquinolin-2(1H)-yl)-2-hydroxypropyl)-3-(cyclobutylamino)benzamide]",500 to 5000,≥ 10000,≥ 10000,500 to 5000,≥ 5000,–,C* (an IC50 ratio of less than 3 fold between the IC50 in the HAP1 MTAP-intact cell line and the HAP1 MTAP-deleted cell line),–,–
"CCC(=O)N1CCN(c2cc(C(=O)NC[C@H](O)CN3CCc4cc(OCc5cnco5)ccc4C3)cc(NC3CCC3)n2)CC1 [Compound 397, (S)-2-(cyclobutylamino)-N-(2-hydroxy-3-(6-(oxazol-5-ylmethoxy)-3,4-dihydroisoquinolin-2(1H)-yl)propyl)-6-(4-propionylpiperazin-1-yl)isonicotinamide]",50 to 500,1000 to 10000,< 1000,50 to 500,500 to 5000,–,C* (an IC50 ratio of less than 3 fold between the IC50 in the HAP1 MTAP-intact cell line and the HAP1 MTAP-deleted cell line),A (a Ki ratio greater than or equal to 10 fold between the Ki in the presence of SAM and the Ki in the presence of MTA),–
"CCN1CCN(c2cc(C(=O)NC[C@H](O)CN3CCc4c(ccc(OCc5cnco5)c4Cl)C3)cc(NC3CCC3)n2)CC1 [Compound 299, (S)—N-(3-(5-chloro-6-(oxazol-5-ylmethoxy)-3N-dihydroisoquinolin-2(1H)-yl)-2-hydroxypropyl)-2-(cyclobutylamino)-6-(4-ethylpiperazin-1-yl)isonicotinamide]",50 to 500,≥ 10000,1000 to 10000,50 to 500,500 to 5000,–,B* (an IC50 ratio greater than or equal to 3 fold but lower than 10 fold between the IC50 in the HAP1 MTAP-intact cell line and the HAP1 MTAP-deleted cell line),A (a Ki ratio greater than or equal to 10 fold between the Ki in the presence of SAM and the Ki in the presence of MTA),–

# The next lines start with results.
IC50 (PRMT5 [1]) [nM],IC50 (HAP1 MTAP-intact) [nM],IC50 (HAP1 MTAP-deleted) [nM],IC50 (PRMT5 [2]) [nM],IC50 (PRMT5 [3]; read-out: No Co-factor IC50) [nM],IC50 (PRMT5 [3]) [nM],SMILES,MTAP Intact/Deleted Ratio (HAP1 MTAP-deleted),SAM/MTA Ratio (PRMT5 [2]; [4]),SAM/MTA Ratio (PRMT5 [2]; [5])
50 to 500,< 1000,< 1000,50 to 500,500 to 5000,–,"COCCN(C)c1nc(NC2COC2)cc(C(=O)NC[C@H](O)CN2CCc3cc(OCc4ocnc4C)ccc3C2)n1 [Compound 408, N-[(2S)-2-hydroxy-3-{6-[(4-methyl-1,3-oxazol-5-yl)methoxy]-1,2,3,4-tetrahydroisoquinolin-2-yl}propyl]-2-[(2-methoxyethyl)(methyl)amino]-6-[(oxetan-3-yl)amino]pyrimidine-4-carboxamide]",C* (an IC50 ratio of less than 3 fold between the IC50 in the HAP1 MTAP-intact cell line and the HAP1 MTAP-deleted cell line),A (a Ki ratio greater than or equal to 10 fold between the Ki in the presence of SAM and the Ki in the presence of MTA),–
50 to 500,≥ 10000,≥ 10000,50 to 500,–,≥ 5000,"Cc1ncoc1COc1ccc2c(c1Cl)CCN(C[C@@H](O)CNC(=O)c1cc(NC3CCCCC3)ncn1)C2 [Compound 501, N-[(2S)-3-[5-chloro-6-[(4-methyl-1,3-oxazol-5-yl)methoxy]-1,2,3,4-tetrahydroisoquinolin-2-yl]-2-hydroxypropyl]-6-(cyclohexylamino)pyrimidine-4-carboxamide]",C* (an IC50 ratio of less than 3 fold between the IC50 in the HAP1 MTAP-intact cell line and the HAP1 MTAP-deleted cell line),–,A (a Ki ratio greater than or equal to 10 fold between the Ki in the presence of SAM and the Ki in the presence of MTA)
500 to 5000,≥ 10000,1000 to 10000,50 to 500,–,≥ 5000,"CCN(C)c1cc(C(=O)NC[C@H](O)CN2CCc3cc(OCc4ocnc4C)ccc3C2)cc(NC2CCC2)n1 [Compound 489, 2-(cyclobutylamino)-6-[ethyl(methyl)amino]-N-[(2S)-2-hydroxy-3-{6-[(4-methyl-1,3-oxazol-5-yl)methoxy]-1,2,3,4-tetrahydroisoquinolin-2-yl}propyl]pyridine-4-carboxamide]",B* (an IC50 ratio greater than or equal to 3 fold but lower than 10 fold between the IC50 in the HAP1 MTAP-intact cell line and the HAP1 MTAP-deleted cell line),–,A (a Ki ratio greater than or equal to 10 fold between the Ki in the presence of SAM and the Ki in the presence of MTA)
50 to 500,1000 to 10000,1000 to 10000,50 to 500,–,≥ 5000,"CC(C)CC(=O)N1CC(Nc2cc(C(=O)NC[C@H](O)CN3CCc4cc(OCc5cnco5)ccc4C3)ccn2)C1 [Compound 474, N-[(2S)-2-hydroxy-3-[6-(oxazol-5-ylmethoxy)-3,4-dihydro-1H-isoquinolin-2-yl]propyl]-2-[[1-(3-methylbutanoyl)azetidin-3-yl]amino]pyridine-4-carboxamide]",B* (an IC50 ratio greater than or equal to 3 fold but lower than 10 fold between the IC50 in the HAP1 MTAP-intact cell line and the HAP1 MTAP-deleted cell line),–,A (a Ki ratio greater than or equal to 10 fold between the Ki in the presence of SAM and the Ki in the presence of MTA)
500 to 5000,1000 to 10000,1000 to 10000,50 to 500,–,≥ 5000,"Cc1ncoc1COc1ccc2c(c1)CCN(C[C@@H](O)CNC(=O)c1ccc(OC3CCOCC3)cc1)C2 [Compound 475, N-[(2S)-2-hydroxy-3-{6-[(4-methyl-1,3-oxazol-5-yl)methoxy]-1,2,3,4-tetrahydroisoquinolin-2-yl}propyl]-4-(oxan-4-yloxy)benzamide]",C* (an IC50 ratio of less than 3 fold between the IC50 in the HAP1 MTAP-intact cell line and the HAP1 MTAP-deleted cell line),–,A (a Ki ratio greater than or equal to 10 fold between the Ki in the presence of SAM and the Ki in the presence of MTA)
50 to 500,1000 to 10000,< 1000,50 to 500,–,≥ 5000,"Cc1ncoc1COc1ccc2c(c1)CCN(C[C@@H](O)CNC(=O)c1cc(CC(C)C)nc(NC3CCC3)c1)C2 [Compound 439, 2-(cyclobutylamino)-N-[(2S)-2-hydroxy-3-{6-[(4-methyl-1,3-oxazol-5-yl)methoxy]-1,2,3,4-tetrahydroisoquinolin-2-yl}propyl]-6-(2-methylpropyl)pyridine-4-carboxamide]",C* (an IC50 ratio of less than 3 fold between the IC50 in the HAP1 MTAP-intact cell line and the HAP1 MTAP-deleted cell line),–,A (a Ki ratio greater than or equal to 10 fold between the Ki in the presence of SAM and the Ki in the presence of MTA)
